Reference: publication PMC6881072, “The repositioning of epigenetic probes/inhibitors identifies new anti-schistosomal lead compounds and chemotherapeutic targets” (PLoS Neglected Tropical Diseases, 2019)
Entries after “also recorded” stand apart in the source; their conditions may differ. Like-named read-outs stand apart in the source and are kept apart here.

Key:
S. mansoni schistosomula = assay: In vitro schistosomula screening (Roboworm platform), phenotype and motility; type: cell-based, Schistosoma mansoni; conditions: for hit / activity against schistosomula, single-point screen: hit cut-offs phenotype -0.15, motility -0.35; for EC50: Schistosoma mansoni
Experimental: Briefly, 384-well tissue culture plates (Perkin Elmer, cat 6007460), containing 20 μl of Basch medium, were wet-stamped using a Biomek NX^P liquid handling platform (Beckman Coulter, UK) with negative (0.625% dimethyl sulfoxide, DMSO) and positive controls (AUR and PZQ at 10 μM final concentration in 0.625% DMSO) as well as 37 SGC compounds (at 10 μM final concentration in 0.625% DMSO). […] To each pre-loaded well (single concentration or titration screens), a total of 100–120 mechanically transformed schistosomula (in 60 μl) were deposited via a WellMate (Thermo Scientific, UK). Schistosomula/compound co-cultures (80 μl in total) were then incubated at 37°C for 72 h in a humidified atmosphere containing 5% CO2. At 72 h, tissue culture plates (containing schistosomula/compound co-cultures) were imaged under the same conditions (37°C in a humidified atmosphere containing 5% CO2) using an ImageXpressXL high content imager (Molecular Devices, UK) with subsequent images processed for phenotype and motility as previously reported and successfully implemented by us at Aberystwyth University. Single point schistosomula screens (10 μM) were repeated two or three times whereas dose response titrations were performed once. Zˊ values obtained from all schistosomula screens ranged from 0.27–0.48 (mean = 0.40) for phenotype and 0.41–0.56 (mean = 0.48) for motility.

[1] = test system: adult male and female schistosome pairs; assay: In vitro adult schistosome screening (WHO/TDR motility, egg counts); type: cell-based, Schistosoma mansoni; conditions: for EC50: Schistosoma mansoni, 72 h
Experimental: In vitro screening was replicated three times on different dates to account for any biological variation. Briefly three adult worm pairs/well (48-well tissue culture plate format) were placed into DMEM (Gibco, Paisley, UK) supplemented with 10% (v/v) FCS (Gibco, Paisley, UK), 1% (v/v) L-glutamine (Gibco, Paisley, UK) and an antibiotic mixture (150 Units/ml penicillin and 150 μg/ml streptomycin; Gibco, UK). DMSO (0.5% negative control), AUR (10 μM concentration in 0.5% DMSO; positive control) and two-fold titrations of SGC compounds (50 μM– 6.25 μM or 50 μM– 0.05 μM; in 0.5% DMSO max) were added, and together, these adult worm/compound co-cultures were incubated at 37°C for 72 h in a humidified atmosphere containing 5% CO2. Following compound incubation, WHO/TDR readouts of adult worm motility, abundance of H3K36me2 (LLY-507 and BAY-598 treated worms only) in histone extracts and egg counts/well were recorded at 72 h.

[2] = HepG2 cell cytotoxicity, MTT assay; type: cell-based, Human; conditions: human, read-out: CC50 (HepG2) (95% Confidence Intervals)
Experimental: Human Hepatocyte Carcinoma (HepG2) cells (Sigma Aldrich, UK) were utilized to assess SGC epigenetic probe cell cytotoxicity in the application of the MTT (3-(4,5-dimethylthiazol-2-yl)-2,5-diphenyltetrazolium bromide) assay. Briefly, cells were passaged at 70–80% confluence and seeded (20,000 cells/ 50 μL per well) in a 96-well, black-sided, clear-bottomed falcon plate (Fisher Scientific, UK) with the final plate column (8 wells) being treated as a blank (media only). Following a 24 h incubation (5% CO2, 37°C, humidified), HepG2 cells were then treated with 50 μL of pre-warmed media (37°C) containing SGC EPs/EIs at 200 μM to 0.02 μM (final concentration 100 μM, 10 μM, 1 μM, 0.1 μM and 0.01 μM). Three positive (1% Triton X-100) and negative (1% DMSO) control wells per plate were additionally included.
After addition of compounds, each plate was then incubated for a further 20 h before application of MTT for assessment of overt compound cytotoxicity using the MTT assay. The MTT assay was read using the POLARstar Omega (BMG LabTech, UK) plate reader at an absorbance of 570 nm. CC50s were calculated in GraphPad Prism.

[3] = CC50 HepG2 / schistosomula motility EC50
[4] = CC50 HepG2 / schistosomula phenotype EC50
[5] = 72 h, two-fold titration 10 μM–0.625 μM, single replicate, approximate, read-out: SCHISTOSOMULA EC50 Motility
[6] = 72 h, two-fold titration 10 μM–0.625 μM, single replicate, approximate, read-out: SCHISTOSOMULA EC50 Phenotype
[7] = motility, adult females, read-out: ADULT EC50 (95% Confidence Intervals) Females
[8] = motility, adult males, read-out: ADULT EC50 (95% Confidence Intervals) Males
[9] = 72 h, read-out: SCHISTOSOMULA EC50 Motility
[10] = 72 h, read-out: SCHISTOSOMULA EC50 Phenotype
[11] = read-out: ADULT EC50 (95% Confidence Intervals) Females
[12] = read-out: ADULT EC50 (95% Confidence Intervals) Males

Structure (SMILES) | hit / activity against schistosomula, single-point screen (S. mansoni schistosomula; 10 μM, 72 h) | SELECTIVITY INDEX Schistosomula Motility (S. mansoni schistosomula; [3]) | SELECTIVITY INDEX Schistosomula Phenotype (S. mansoni schistosomula; [4]) | EC50 (S. mansoni schistosomula; [5]) [µM] | EC50 (S. mansoni schistosomula; [6]) [µM] | SELECTIVITY INDEX Adult Females ([1]; CC50 HepG2 / adult female EC50) | SELECTIVITY INDEX Adult Males ([1]; CC50 HepG2 / adult male EC50) | EC50 [1, 7] [µM] | EC50 [1, 8] [µM] | CC50 at 20 h ([2]; HepG2 cells) [µM] | also measured
CCCc1cc(C)n(C)c(=O)c1CN(C)C(=O)c1cc(-c2ccc(N3CCN(C(C)C)CC3)nc2)cc2c1cnn2C(C)C [UNC2400] | None of these chemotype controls demonstrated anti-schistosomula activity |  |  |  |  |  |  |  |  |  | 
CCCc1cc(C)[nH]c(=O)c1CNC(=O)c1cc(-c2ccc(N3CCN(C(C)C)CC3)nc2)cc2c1cnn2C(C)C [UNC1999, N-[(6-methyl-2-oxo-4-propyl-1,2-dihydropyridin-3-yl)methyl]-1-(propan-2-yl)-6-{6-[4-(propan-2-yl)piperazin-1-yl]pyridin-3-yl}-1H-indazole-4-carboxamide] | are hits against schistosomula | 11.16 | 7.48 | 2.82 | 4.2 | 1.95 | 2.32 | 16.1 | 13.5 | 31.4 | 
CCN(C(=O)CO)C1CN(C(=Nc2cccc(OC(F)F)c2)NC#N)N=C1c1ccccc1 (stereo not drawn) [BAY-369] | None of these chemotype controls demonstrated anti-schistosomula activity; also recorded: is not |  |  |  |  |  |  |  |  |  | 
CCOC(=O)CCNc1cc(N2CCc3ccccc3CC2)nc(-c2cccnc2)n1 [GSKJ5] | None of these chemotype controls demonstrated anti-schistosomula activity |  |  |  |  |  |  |  |  |  | 
Clc1cc2c(NC3CCCC3)nnc(-c3ccncc3)c2cc1Cl [A-196, 8,9-dichloro-N-cyclopentyl-5-(pyridin-4-yl)-3,4-diaza-bicyclo[4.4.0]deca-1(10),2,4,6,8-pentaen-2-amine] |  | 10.45 | 36.00 | 4.78 | 1.39 | 3.13 | 2.24 | 16 | 22.3 | > 50 | 
CCn1cc(-c2cccc(C(F)(F)F)c2)c2sc(C(=N)NC3CCS(=O)(=O)CC3)cc2c1=O [I-BRD9, N-(1,1-dioxidotetrahydro-2H-thiopyran-4-yl)-5-ethyl-4-oxo-7-(3-(trifluoromethyl)phenyl)-4,5-dihydrothieno[3,2-c]pyridine-2-carboximidamide] |  | 7.61 | 24.44 | 4.13 | 1.29 | 1.31 | 1.10 | 24 | 28.5 | 31.4 | 
CC(=O)Nc1ccc(C(=O)Nc2ccccc2N)cc1 [CI-994] | non-hit |  |  |  |  |  |  |  |  |  | 
COc1ccc(CCc2nc3cc(-c4c(C)noc4C)ccc3n2CC(C)N2CCOCC2)cc1Cl (stereo not drawn) [SGC-CBP30, 8-(3-chloro-4-methoxy-phenethyl)-4-(3,5-dimethyl-isoxazol-4-yl)-9-(2-(morpholin-4-yl)-propyl)-7,9-diaza-bicyclo[4.3.0]nona-1(6),2,4,7-tetraene] | demonstrated activity against schistosomula |  |  | 4.99 | 3.19 |  |  | 31.2 | 33.5 | > 50 | S[…] Schistosomula Motility (S. mansoni schistosomula; [3]): 10.03; S[…] Schistosomula Phenotype (S. mansoni schistosomula; [4]): 15.69; S[…] Adult Females ([1]; CC50 HepG2 / adult female EC50): 1.6; S[…] Adult Males ([1]; CC50 HepG2 / adult male EC50): 1.49
CC(C)Oc1ccc(-c2c[nH]cc2CN(C)CCN)cc1 [MS023, 3-(((2-amino-ethyl)-methyl-amino)-methyl)-4-(4-(1-methyl-ethoxy)-phenyl)-1H-pyrrole] |  | 2.52 | 4.14 | 6.45 | 3.92 | 0.62 | 0.62 | 26.3 | 26.2 | 16.2 | 
CCCS(=O)(=O)c1nc(NC2CC2)cc(-c2ccc3c(ccn3C3CC(C)(C)NC(C)(C)C3)c2)n1 [NVS-CECR2-1, N-cyclopropyl-2-propylsulfonyl-6-[1-(2,2,6,6-tetramethylpiperidin-4-yl)indol-5-yl]pyrimidin-4-amine] |  | 3.60 | 4.98 |  |  | 1.73 | 3.11 |  |  |  | schistosomula phenotype by microscopic assessment (S. mansoni schistosomula; 10 μM, 72 h): phenotypes comparable to auranofin; EC50 (S. mansoni schistosomula; [9]): 2.5 µM; EC50 (S. mansoni schistosomula; [10]): 1.81 µM; EC50 [1, 11]: 5.21 µM; EC50 [1, 12]: 2.9 µM; CC50 at 20 h [2]: 9.03 µM
O=C(/C=C/c1ccc(CN(CCO)CCc2c[nH]c3ccccc23)cc1)NO [LAQ824] | hit | 6.40 | 7.04 | 2.45 | 2.22 | 0.95 | 0.63 | 16.5 | 25 | 15.6 | 
Cc1sc2c(c1C)C(c1ccc(Cl)cc1)=N[C@@H](CC(=O)OC(C)(C)C)c1nnc(C)n1-2 [JQ1, [(S)-4-(4-Chloro-phenyl)-2,3,9-trimethyl-6H-1-thia-5,7,8,9a-tetraaza-cyclopenta[e]azulen-6-yl]-acetic acid tert-butyl este] |  | 5.53 | 3.56 |  |  | 0.73 | 0.92 |  |  |  | EC50 (S. mansoni schistosomula; [9]): 3.04 µM; EC50 (S. mansoni schistosomula; [10]): 4.72 µM; EC50 [1, 11]: 22.8 µM; EC50 [1, 12]: 18.3 µM; CC50 at 20 h [2]: 16.8 µM
CCC(=O)N1CCOc2c(cc(-c3ccc(OC)c(OC)c3)cc2OC[C@H]2CCCN(C)C2)C1 [I-CBP112, 1-[7-(3,4-dimethoxyphenyl)-9-{[(3S)-1-methylpiperidin-3-yl]methoxy}-2,3,4,5-tetrahydro-1,4-benzoxazepin-4-yl]propan-1-one] | did not |  |  |  |  |  |  |  |  |  | 
